Assay results from ChEMBL document CHEMBL5223105, “Nitro compounds against trypanosomatidae parasites: Heroes or villains?” (Bioorg Med Chem Lett, 2022).
Values after ≈ are worked out from the molar mass of the structure shown. Values belong to the compound of their own block, whether it stands above or below them.

Assays:
[1] = Selectivity index, ratio of EC50 for Trypanosoma cruzi epimastigotes to LC50 for african green monkey Vero cells; assay type: toxicity; conditions: Vero cells versus Trypanosoma cruzi epimastigotes, read-out: Selectivity Index
Trypanosoma cruzi [2] = assay: Antitrypanosomal activity against Trypanosoma cruzi epimastigotes assessed as parasite growth inhibition at 50 uM; assay type: functional; set-up: scale not given: the % may be the effect or the level left
Trypanosoma cruzi [3] = assay: Antitrypanosomal activity against Trypanosoma cruzi epimastigotes; assay type: functional, organism-based
[4] = Cytotoxicity against african green monkey Vero cells; assay type: toxicity, cell-based; conditions: chlorocebus sabaeus, read-out: LC50 (the source's name)
Trypanosoma cruzi [5] = assay: Antitrypanosomal activity against Trypanosoma cruzi NINOA; assay type: functional
Trypanosoma cruzi [6] = assay: Antitrypanosomal activity against Trypanosoma cruzi INC-5; assay type: functional
Trypanosoma cruzi [7] = assay: Antitrypanosomal activity against Trypanosoma cruzi Y; assay type: functional, organism-based
Trypanosoma cruzi [8] = assay: Antitrypanosomal activity against Trypanosoma cruzi Tulahuen; assay type: functional, organism-based
Trypanosoma cruzi [9] = assay: Antitrypanosomal activity against Trypanosoma cruzi Brener; assay type: functional, organism-based
Leishmania infantum = assay: Antileishmanial activity against Leishmania infantum amastigotes MCAN/ES/2001/UCM-10 infected in J774.2 cells; assay type: functional, organism-based; conditions: MCAN/ES/2001/UCM-10, J774.2
[10] = Cytotoxicity against mouse J774.2 cells; assay type: toxicity, cell-based
[11] = Selectivity index, ratio of CC50 for […] J774.2 cells to IC50 Leishmania infantum MCAN/ES/2001/UCM-10; assay type: toxicity; conditions: J774.2 cells versus Leishmania infantum MCAN/ES/2001/UCM-10; read-out: Ratio CC50/IC50
[12] = Cytotoxicity against CHO cells; assay type: toxicity, cell-based, Cricetulus griseus; conditions: chinese hamster
Trypanosoma cruzi [13] = assay: Antitrypanosomal activity against Trypanosoma cruzi X10/7-Silvio; assay type: functional, organism-based
Leishmania donovani [14] = assay: Antileishmanial activity against Leishmania donovani axenic amastigotes; assay type: functional, organism-based
[15] = Selectivity index, ratio of CC50 for rat L6 cells to IC50 for Leishmania donovani; assay type: toxicity; conditions: L6 cells versus Leishmania donovani, read-out: Ratio CC50/IC50
[16] = Cytotoxicity against rat L6 cells; assay type: toxicity, cell-based
Trypanosoma cruzi [17] = assay: Antitrypanosomal activity against Trypanosoma cruzi LQ; assay type: functional, organism-based
Leishmania donovani [18] = assay: Antileishmanial activity against Leishmania donovani LCR-L 133 LRC infected in J774.2 cells; assay type: functional, organism-based
[19] = Selectivity index, ratio of CC50 for […] J774.2 cells to IC50 Leishmania donovani LCR-L 133 LRC; assay type: toxicity; conditions: J774.2 cells versus Leishmania donovani LCR-L 133 LRC; read-out: Ratio CC50/IC50
[20] = Selectivity index, ratio of CC50 for […] J774.2 cells to IC50 Leishmania braziliensis MHOM/BR/1975/M2904; assay type: toxicity; conditions: read-out: Ratio CC50/IC50
Leishmania braziliensis = assay: Antileishmanial activity against Leishmania braziliensis MHOM/BR/1975/M2904 infected in J774.2 cells; assay type: functional, organism-based; conditions: MHOM/BR/1975/M2904, J774.2

Compound: O=[N+]([O-])c1ccc(/C=N/N=c2\[nH]nc(Cl)c3ccccc23)o1
- selectivity ratio [1]: 8.82
- Activity (Trypanosoma cruzi [2]): 48%
- EC50 (Trypanosoma cruzi [3]): 6.3 µM
- CC50 [4]: 100 µM

Compound: O=[N+]([O-])c1ccccc1/C=N/NS(=O)(=O)c1ccccc1
- LC50 (Trypanosoma cruzi [5]): 218 µM
- LC50 (Trypanosoma cruzi [6]): 15.2 µM

- IC50 (Trypanosoma cruzi [7]): 38.6 µM
Compound: Cn1cnc([N+](=O)[O-])c1-c1nnc(N)[nH]1

- IC50 (Trypanosoma cruzi [8]): 34.2 µM
- IC50 (Trypanosoma cruzi [9]): 31.2 µM
Compound: Cn1c([N+](=O)[O-])cnc1-c1nnc(NC(=O)C(F)(F)F)s1

- IC50 (Leishmania infantum): 9.1 µM
Compound: CNCCOCCn1nc(OCc2ccccc2)c2cc([N+](=O)[O-])ccc21
- CC50 [10]: 197 µM
- selectivity ratio [11]: 21.6

Compound: O=[N+]([O-])c1ccc(/C=N/N=c2\[nH]nc(Cl)c3ccccc23)s1
- selectivity ratio [1]: 5.14
- Activity (Trypanosoma cruzi [2]): 54%
- EC50 (Trypanosoma cruzi [3]): 7.2 µM
- CC50 [4]: 37 µM

- EC50 (Trypanosoma cruzi [13]): 3.6 µM
Compound: O=C(Cn1cccc1[N+](=O)[O-])Nc1cccc(C(F)(F)F)c1
- CC50 [12]: 156 µM

Compound: O=[N+]([O-])c1ccc(/C=N/NS(=O)(=O)c2ccccc2)cc1
- LC50 (Trypanosoma cruzi [5]): 26.3 µM
- LC50 (Trypanosoma cruzi [6]): 4.68 µM

- IC50 (Leishmania donovani [14]): 0.081 µg/mL (≈ 0.191 µM)
Compound: COc1cc(CSc2nnc(-c3ncc([N+](=O)[O-])n3C)s2)cc(OC)c1OC
- selectivity ratio [15]: 240
- CC50 [16]: 19.4 µg/mL (≈ 45.9 µM)

- IC50 (Trypanosoma cruzi [8]): 7.46 µM
- IC50 (Trypanosoma cruzi [9]): 7.44 µM
- IC50 (Trypanosoma cruzi [17]): 7.44 µM
Compound: CC(=O)Nc1nnc(-c2ncc([N+](=O)[O-])n2C)s1

- IC50 (Leishmania donovani [18]): 1.6 µM
Compound: O=[N+]([O-])c1ccc2c(c1)c(Oc1ccccc1)nn2CCBr
- selectivity ratio [19]: 120
- CC50 [10]: 588 µM

- IC50 (Leishmania infantum): 12.1 µM
Compound: Cn1nc(OCc2ccccc2)c2cc([N+](=O)[O-])ccc21
- CC50 [10]: 179 µM
- selectivity ratio [11]: 14.8

- EC50 (Trypanosoma cruzi [13]): 6 µM
Compound: O=C(Cn1cccc1[N+](=O)[O-])Nc1ccccc1
- CC50 [12]: 262 µM

Compound: CCC(=O)N(/N=C/c1ccccc1[N+](=O)[O-])S(=O)(=O)c1ccccc1
- LC50 (Trypanosoma cruzi [5]): 68.1 µM
- LC50 (Trypanosoma cruzi [6]): 0.61 µM

- IC50 (Leishmania braziliensis): 8.1 µM
- IC50 (Leishmania infantum): 3.5 µM
Compound: COc1nn(CCN)c2ccc([N+](=O)[O-])cc12
- selectivity ratio [20]: 60
- CC50 [10]: 489 µM
- selectivity ratio [11]: 140
